Test results published in article PMC10470178, “Long-acting lenacapavir protects macaques against intravenous challenge with simian-tropic HIV” (eBioMedicine, 2023).

Key:
stHIV-A19 = test: Multi-round viral replication assay in SupT1-CCR5 cells, stHIV-A19; format: cell-based, simian-tropic HIV-1; conditions: Human immunodeficiency virus 1, 168 h, supernatant vRNA 7 days post-infection, mean ± SD of three independent experiments, read-out: mean EC50 against stHIV-A19
Method: (§1) Infectious stocks of stHIV-A19,[23] HIV-1 NL4-3, and SIVmac239 were produced in HEK-293T (RRID: CVCL_1926) cells transfected with full-length viral genome plasmids using the TransIT HEK-293 transfection reagent (Mirus Bio) according to the manufacturer’s instructions. Virus stock infectious titres were determined on TZM-bl reporter cells (RRID: CVCL_B478) as previously described.[26] For experiments using SupT1-CCR5 target cells (RRID: CVCL_X633),[27] cultures were maintained in RPMI 1640 medium supplemented with 10% foetal bovine serum (FBS), 2 mM glutamine, 100 U/ml penicillin, and 100 μg/ml streptomycin. […] Cells were then washed three times to remove input virus, counted, and cultured in triplicate in growth media containing serial threefold dilutions of LEN or no LEN (control). […] Culture supernatants were collected 7 days post-inoculation, clarified by centrifugation, and stored at −80 °C for later quantification of vRNA by quantitative reverse transcription polymerase chain reaction (qRT-PCR). […] The stHIV-A19 stock was quantified with a SYBR Green-based qPCR-based product-enhanced RT (PERT) assay using a purified reverse transcriptase (RT) protein standard, as previously described.[28] […] After 7 days, the virus in culture supernatants was quantified using the PERT assay. […]

SIVmac239 = test: Multi-round viral replication assay in SupT1-CCR5 cells, SIVmac239; format: cell-based, SIV
Method: as §1

HIV-1 = system: HIV-1; parameters: method as in PMID 32612233; conditions: people with HIV-1, monotherapy, 450 mg, after 9 days of treatment; cited from earlier work

## CC(C)(C#Cc1ccc(-c2ccc(Cl)c3c(NS(C)(=O)=O)nn(CC(F)(F)F)c23)c([C@H](Cc2cc(F)cc(F)c2)NC(=O)Cn2nc(C(F)(F)F)c3c2C(F)(F)[C@@H]2C[C@H]32)n1)S(C)(=O)=O [LEN, Lenacapavir]
stHIV-A19
  EC50: 0.091 nM
SIVmac239
  reduced potency against SIVmac239 compared with HIV-1 NL4-3 and stHIV-A19: approximately 6 fold
SIVmac239; Simian immunodeficiency virus, 168 h, supernatant vRNA 7 days post-infection, mean ± SD of three independent experiments, read-out: mean EC50 against SIVmac239
  EC50: 0.502 nM
HIV-1
  maximum reductions in plasma viral loads: > 100 fold
